Test results as given in patent US12433864B2, “5,6-diHETE lactone for treatment of microvascular dysfunction” (MIGAL GALILEE RESEARCH INSTITUTE LTD., priority 2019, dated 2025).

Legend:
[1] = system: Human adipose arterioles (HAAs); assay: Dilation of human adipose arterioles (HAAs), cannulated, video diameter measurement; conditions: for max dilation: 10^−7 mol/L, pre-constricted with endothelin-1
Procedure: Human adipose arterioles (HAAs) were extracted from adipose tissues obtained from subjects without coronary artery disease (7 normotensives and 7 hypertensives). The HAAs (100-200 μm in diameter) were cannulated with 2 glass micropipettes in an organ chamber, and the internal diameter of arterioles was measured with a video system. Arterioles were pre-constricted with endothelin-1 (10-50 nmol/L) to reduce the passive diameter by 30-50%. Relaxation was measured in response to the increasing concentrations of 5,6-diHETE lactone (10^−4-10^−1 μmol/L). To examine the involvement of NO in the 5,6-diHETE lactone-induced dilation, relaxation responses were determined in the presence or absence of nitric oxide synthase (NOS) antagonist (100 μmol/L N[omega]-nitro-Larginine methyl ester [L-NAME]).
Endothelial cell denudation was achieved by perfusion of the vessels with pre-warmed air as previously described (H. Miura, Circ. Res. 92 (2003)). At the end of each experiment, papaverine (100 μmol/L), an endothelium-independent vasodilator, was added to determine the maximal dilation for normalization of dilator responses. Vasodilator responses are expressed as the percentage of maximal dilation, with 100% representing complete relaxation (maximal diameter).

[2] = system: Sprague-Dawley 5/6Nx rats; assay: Direct blood pressure measurement in 5/6Nx rats after acute injection; assay type: in vivo, rat
Procedure: Direct blood pressure measurements—For direct blood pressure (BP) evaluation, Sprague-Dawley 5/6Nx rats were deeply anesthetized by an injection of 87 mg/kg ketamine and 13 mg/kg xylazine (intramuscular) mixture. Next, the rats were instrumented with a venous line and an arterial line. Specifically, using 26G i.v. cannula (BD Neoflon, Helsinborg, Sweden) we punctured one of the tail veins, and installed the cannula. Next, 1 ml of saline heparin (500 IU/ml) mixture was administered to avoid blood clotting. Concomitantly, we installed the arterial line, after a neck incision we bluntly exposed the right carotid and ligated it distally. Then the artery was clamped proximally and incised between the ligation and the clamp. A 100 PE tube was advanced into the artery and tightened in it by second ligature aimed to avoid blood leakage, and then we removed the arterial clamp. The external tube was attached to a Luer stopcock valve, through which saline could be injected, blood withdrawn and to be connected to a pressure transducer.
Upon connecting and stabilization, signals were continuously sampled at a sampling rate of 200 samples/sec by the MPVS-300 system, recorded.
Basal BP was recorded for 10 min, after which time 0.5 ml 5,6-diHETE lactone (0.3 mg/kg and 3 mg/kg) dissolved in saline+DMSO (9:1) were injected through the venous line, and BP was recorded for additional 10 min after injection. For control, two distinct, known BP lowering agents were used consecutively, labetalol (10 mg/kg) a known a and p adrenergic inhibitor, and amlodipine (1.5 mg/kg) a calcium channel blocker (each by 0.5 ml venous injection). BP was recorded for additional 10 min after each injection. Specifically, after lactone effect recording labetalol was administered and 10 min later the amlodipine. We terminated the experiment by venous administration of 1M KCl overdose, until the heart stopped.

[3] = target: T1, KCa3.1 (IK) calcium-activated potassium channel (human KCNN4 gene) expressed in CHO cells (Homo sapiens, UniProt O15554); assay: Thallium flux assay, agonist effect on IK channel; assay type: cell-based; conditions: for Normalized % Activation: IK
T1 construct: expressed in transfected cells
Procedure: (§1) Potassium channels genes were expressed in HEK293 or CHO cells (see Table 1). SspI or PvuI enzymes were used to linearize pcDNA3.1 plasmid (Thermo Fisher). The plasmid was stably transfected by Lonza Nucleofector. The transfection efficiency was >80% as validated by expression (western blot) and activation (patch clamp and membrane potential detection) of the channels.
(§2) Functional activity of voltage-gated potassium channels was conducted using a potassium dye (Thallium flux assay, Molecular Devices) using a Fluorescence Imaging Plate Reader (FLIPRTETRA™) instrument, according to the manufacturer's instructions. Cells were plated in 384-well black wall, flat clear bottom microtiter plates (BD Biocoat Poly-D Lysine Multiwell Cell Culture Plate) at 15,000 to 30,000 cells per well. Cells were incubated at 37° C. overnight or until cells reach sufficient density in the wells (near confluent monolayer) to use in fluorescence assays. A typical sequence is to record a baseline during the pre-incubation period (first addition of test article before stimulation), followed by activation in the stimulus buffer. For each addition, the first 60 seconds of data are acquired at the maximum rate (1 sample/second) and for the remaining 9-19 minutes (depending on the recording time of each addition); data are sampled every 5 seconds.
(§3) Accordingly, the objective of this study was to evaluate the agonist effects in vitro of the 5,6-diHETE lactone on two cloned human channels stably expressed in HEK-293 or CHO cells. The assay was performed with a thallium flux assay (FLIPR® Potassium Assay, Molecular Devices) according to the manufacturer's instructions. Briefly, cells were plated in 384-well black wall, flat clear bottom microtiter plates (BD Biocoat Poly-D-Lysine Multiwell Cell Culture Plate) at 15,000 to 30,000 cells per well. Cells were incubated at 37° C. overnight or until cells reach sufficient density in the wells (near confluent monolayer) to use in fluorescence assays. Dye-loading: Growth medium was removed and replaced with dye-loading buffer for 60 minutes at room temperature (protected from light). Agonist Effect: 5 repetitions of (5 μL) test, and vehicle or control solutions (assay buffer=0.3% DMSO) in K^+-free buffer with 5 mM Tl^+ was added to each well for ˜5 minutes. The test was 5,6-diHETE lactone (at eight concentrations: 0.05, 0.15, 0.3, 0.65, 1.25, 2.5, 5, and 10 μM, n=4). The agonist effects of the test article on the potassium channels was evaluated during this period by using a Fluorescence Imaging Plate Reader (FLIPRTETRA™) instrument.
(§4) To calculate the effect, the signal elicited in the presence of a known agonist, (1 μM A-23187 for SK3 and 10 μM NS309 for IK) with 5 mM thallium was set to 100% activation and the signal in the presence of the vehicle control (assay buffer+0.3% DMSO) was set to 0% activation. EC50 was calculated using GraphPad prism 5 software using nonlinear regression fit formula assuming a simple binding model.

rat mesenteric arteries = assay: Relaxation of rat mesenteric arteries from NT and 5/6Nx rats (wire myograph)
HUVEC = assay: Calcium imaging, intracellular [Ca2+]i increase in HUVEC; assay type: cell-based, human; conditions: for changes in cellular [Ca2+]i: 2 μmol/L
Procedure: HUVECs were plated onto 24-well plates and grown to 70% confluence. To monitor cytosolic Ca^2+ signals, cells were loaded with fluo-3 AM (4 μmol/L; Molecular Probes) and incubated for 40 min at 37° C. in complete medium that contained […] pluronic acid. After washing twice with HEPES buffer that contained (in mmol/L) 1.25 CaCl2, 5.5 D-glucose, 10 HEPES, 5 KCl, 0.5 MgCl2, and 140 NaCl (brought to pH 7.4 with NaOH); the plates were incubated at 37° C. for 15 additional minutes prior to fluorescence imaging. Fluorescence images were acquired every 1 s over the course of 5 min in cells treated with 4α-phorbol-12, 13-didecanoate (4α-PDD; a specific TRPV4 agonist; 10 μmol/L), 5,6-diHETE ((±)5,6-dihydroxy-8Z,11Z,14Z,17Z-eicosatetraenoic acid) 1, 5 lactone (0.01-5 μmol/L) and 5,6-diHETE (hydrolytic isomer of 5,6-EEQ; 2 and 5 μmol/L). The calculated ratio between maximal intensity (F1) and basal intensity (F0) was determine for each experiment and presented as Average±SD.
To investigate the effect of 5,6-diHETE ((±)5,6-dihydroxy-8Z,11Z,14Z,17Z-eicosatetraenoic acid) lactone on cytosolic [Ca^2+]i (FIG. 1), HUVECs were exposed to graded doses of 5,6-diHETE lactone (0.01-5 μmol/L) in ethanol/HEPES buffer, and the intracellular changes in [Ca^2+] were determined by the mean of fluoresces intensity. […] No significant differences in cytosolic [Ca^2+]i levels were detected beyond 0.5 μM lactone. Above this concentration the cytosolic [Ca^2+]i levels reach saturation.
These rapid pathways result in the reduction of epoxide concentrations, and thus, in a decrease in their activity. We therefore tested the ability of the hydrolyzed form compared to the unhydrolyzed form to increase intracellular calcium (FIG. 2).

[4] = target: T2, KCa2.3 (SK3) calcium-activated potassium channel (human KCNN3 gene) expressed in HEK293 cells (Homo sapiens, UniProt Q9UGI6); assay: Thallium flux assay, agonist effect on SK3 channel; assay type: cell-based
T2 construct: expressed in transfected cells
Procedure: as §1, §2, §3, §4

[5] = system: mouse mesenteric resistance arteries; assay: Vascular reactivity in mouse mesenteric resistance arteries (wire myograph); conditions: 10^−5 mol/L, pre-constricted with U-46619 0.1 μmol/L, n=11
Procedure: On the day preceding the experiment, adult male mice (age 3-6 months) were decapitated and mesenteric tissue was dissected and placed on an agar plate with ice-cold HEPES-physiological saline solution (PSS) containing: 123 mM NaCl, 4.7 mM KCl, 2.5 mM CaCl2*2H2O, 1.2 mM MgSO4*7H2O, 20 mM NaHCO3, 1.2 mM KH2PO4, 26 μM EDTA, 11 mM glucose and 2.38 mg/ml HEPES Fat and connective tissue were carefully removed, arterioles (150-200 μm diameter) were cut into 3 mm segments and stored overnight at 4° C. The vessels were then mounted carefully on two tungsten wires (0.025 mm diameter) with care not to damage the endothelium, and mounted on a four-chamber wire myograph (DMT, Denmark, Model 620 M). Arteries were then equilibrated at 37° C. for 30 min in the myograph chamber filled with PSS and constantly bubbled with gas containing 21% O2, 74% N2, and 5% CO2 and set at 1 mN resting tension obtained in the LabChart Pro software (AD instruments, Oxfordshire, UK). […] After contraction reached steady state, cumulative concentrations of 5,6-diHETE lactone were added (1 μM to 10 μM) in DMSO (up to 0.16%) and the % relaxation responses were determined relative to the relaxation response to 100 μM papaverine.
To evaluate the vasodilation mediated by 5,6-diHETE lactone, mesenteric arteries from C57BL were extracted and monitored for their dilation in a wire myograph chamber under physiological conditions. […]

CCC=CCC=CCC=CCC=CCC(O)C1CCCC(=O)O1 (racemic) [5,6-diHETE lactone, 5,6 dihydroxyeicosatetraenoic acid (5,6-diHETE) lactone]
max dilation ([1]; hypertensive subjects): 40.9%
effect of L-NAME on the dilation ([1]; hypertensive subjects, L-NAME 100 μmol/L): no effect
effect of mechanical denudation of the endothelial layer on induced dilation ([1]; normotensive (healthy) arterioles): significantly reduced
max dilation ([1]; normotensive subjects): 58.6%
reduction of the dilation effect by L-NAME ([1]; normotensive subjects, L-NAME 100 μmol/L): 50%
percent reduction of SBP from baseline ([2]; 0.3 mg/kg i.v.): about 20%
systolic blood pressure (SBP) upon injection ([2]; 0.3 mg/kg i.v., baseline 188.0±5.5 mmHg, 3 rats): 162.5±12.3 mmHg
EC50 ([3]; CHO cells, 100% = 10 μM NS309, read-out: EC50, IK channel activation): 2.65 µM
Normalized % Activation ([3]; 0.05 μM): −0.13%
Normalized % Activation ([3]; 0.15 μM): −0.03%
Normalized % Activation ([3]; 0.3 μM): 0.2%
Normalized % Activation ([3]; 0.65 μM): 1.03%
Normalized % Activation ([3]; 1.25 μM): 6.06%
Normalized % Activation ([3]; 2.5 μM): 44.2%
Normalized % Activation ([3]; 5 μM): 90%
Normalized % Activation ([3]; 10 μM): 98.19%
% relaxation (relative to papaverine) (rat mesenteric arteries; 5/6Nx vessels, 10^−6M, n=11): 73.3±20.2%
% relaxation (relative to papaverine) (rat mesenteric arteries; NT vessels, 10^−6M, n=11): 58.6±25.0%
effect of pre-treatment with TRAM-34 and apamin on induced relaxation (rat mesenteric arteries; lactone 1 μmol/L, TRAM-34 1 μmol/L and apamin 1 μmol/L, p<0.01): significantly attenuated
concentration beyond which cytosolic [Ca2+]i levels show no significant differences (saturation) (HUVEC): 0.5 µM
lowest concentration causing a significant [Ca2+] increase (HUVEC): 0.01 µmol/L
changes in cellular [Ca2+]i (HUVEC): induced
EC50 (HUVEC; Homo sapiens, Fluo4 fluorescence, 0.01-5 μmol/L, read-out: EC50 of [Ca2+]i increase (F1max/F0)): 0.00994 µM
EC50 ([4]; HEK293 cells, 100% = 1 μM A-23187, read-out: EC50, SK3 channel activation): 9.99 µM
Normalized % Activation ([4]; SK3, 0.05 μM): 0.12%
Normalized % Activation ([4]; SK3, 0.15 μM): 0.35%
Normalized % Activation ([4]; SK3, 0.3 μM): 0.95%
Normalized % Activation ([4]; SK3, 0.65 μM): 3.25%
Normalized % Activation ([4]; SK3, 1.25 μM): 10.16%
Normalized % Activation ([4]; SK3, 2.5 μM): 25.36%
Normalized % Activation ([4]; SK3, 5 μM): 43.17%
Normalized % Activation ([4]; SK3, 10 μM): 73.65%
% dilation (relative to 100 μM papaverine) [5]: 29.4±3.1%

CC/C=C\C/C=C\C/C=C\C/C=C\CC(O)C(O)CCCC(=O)O (racemic) [5,6-diHETE, (±)5,6-dihydroxy-8Z,11Z,14Z,17Z-eicosatetraenoic acid]
lowest concentration causing a significant [Ca2+] increase (HUVEC): 5 µmol/L
changes in cellular [Ca2+]i (HUVEC): not

CC(=O)OCC[N+](C)(C)C [Acetylcholine, acetylcholine, reference compound]
% relaxation (relative to papaverine) (rat mesenteric arteries; 5/6Nx vessels, acetylcholine concentration response, n=7-13): 63.2±15.6%
% relaxation (relative to papaverine) (rat mesenteric arteries; NT vessels, acetylcholine concentration response, n=7-13): 94.8±5.5%

CC(CCc1ccccc1)NCC(O)c1ccc(O)c(C(N)=O)c1 (centres unmarked) [labetalol, reference compound]
percent reduction of SBP from baseline ([2]; 10 mg/kg i.v., given after the lactone): about 20%
